Measurements from publication PMC6941952, “A homogeneous bioluminescent immunoassay to probe cellular signaling pathway regulation” (Communications Biology, 2020).
“And” between values parts separate entries of the source, which are not always exact repeats. Equal entries are not always repeated.

Tests used:
phospho-IκBα (Ser32) [1] = experiment: NanoBiT cell-based immunoassay, phosphorylated IκBα in human primary mammary epithelial cells; conditions: for P-IkB Average: background subtracted; for P-IkB Raw data / P-IkB Subtract reagent background: listed as TNF
Experimental: (§1) All cell lines used are from ATCC. […] Human Primary Mammary Epithelial Cells (#H-6035), Human Breast Tumor Epithelial Cells (#HC-6035), Complete Human Epithelial Cell Medium (#H6621), and Gelatin-Based Coating Solution (#H6950) were purchased from Cell Biologics. The cells were cultured according to the manufacturer’s procedure. All cells were grown at 37 °C in a 5% CO2 humidified incubator and passaged before reaching 80% cell confluency. Prior to each experiment, cells were counted by combining 30 µl of cell suspension with 30 µl of trypan blue. After gentle pipetting up and down to mix the cells and the dye, the cell number was determined using Bio-Rad TC 20 cell counter.
(§2) Prior to NanoBiT Cell-Based Immunoassay, 50,000 cells were seeded in 160 µl of complete growth media per well of a 96-well plate and incubated overnight. The cells were checked under microscope and it was determined that 50,000 cells per well in 96-well plate is under 90% confluency for all cells tested. If necessary, the cell culture media were replaced with serum-free media after the cells were stably adherent on the plate and incubated overnight. To treat cells with activators or inhibitors, medium was changed to 30 µl of medium containing inhibitors. If activation of a specific pathway is needed, the cells were stimulated with 10 µl of medium containing activators. To lyse the cells, 10 µl of lysis buffer containing 0.1% digitonin diluted in 1X immunoassay buffer with protease and phosphatase inhibitors was added and the plates were mixed vigorously for 20 min. Then, 50 µl of an antibody mix containing two primary antibodies against the target protein and NanoBiT detecting antibodies (0.3 µl each per well), diluted in 1X immunoassay buffer was added to the lysates. The plates were incubated at 23 °C for 90 min, followed by the addition of 25 µl of Nano-Glo® reagent consisting of Nano-Glo® Luciferase Assay Substrate mixed with 1X immunoassay buffer. Luminescence was measured using a plate-reading luminometer.
(§3) Single dose or dose response inhibitor treatments were performed prior to activation of the pathways as follows. For IκBα, the cells were treated in 30 µl medium with IKK16 or MG132 for 60 min before the addition of 10 µl of DMEM containing appropriate concentration of TNFα. To measure phosphorylation of AKT or STAT3, the corresponding NanoBiT immunoassays were developed with MCF-7 or A431 cells, respectively, according the same scheme used to develop the IκBα assay using the primary antibodies for AKT and STAT3 described in the reagents section. For the AKT assay, MCF-7 cells were incubated overnight in phenol-red free DMEM medium (Gibco #21063-029) without serum. Treatment with LY294002 was performed in 30 µl medium and cells were incubated for 60 min before the addition of 1 µM Insulin. To measure STAT3 phosphorylation, A431 cells were incubated overnight in DMEM medium without serum. […] After addition of the stimulators, the cells were incubated for additional times as follows. IκBα phosphorylation and degradation analyses required both time courses and single time points as described in figures. […] The NanoBiT immunoassay protocol was followed as described above.
(§4) All 96-well assay plates were read using a GloMax® 96 Microplate Luminometer from Promega. The instrument was set to 0.5 s integration time. In order to obtain net change of signal, the reagent background values (signal from the well containing all reagent except primary antibodies) were subtracted from the sample values. To plot and analyze the data, Microsoft Excel and GraphPad Prism® Software were used. IC50 values were determined by using a nonlinear regression fit to a sigmoidal dose response (variable slope).

phospho-IκBα (Ser32) [2] = experiment: NanoBiT cell-based immunoassay, phosphorylated IκBα in human breast tumor epithelial cells; conditions: for P-IkB Average: background subtracted; for P-IkB Raw data / P-IkB Subtract reagent background: listed as TNF
Experimental: as §1, §2, §3, §4

Substance: TNFα
- P-IkB Average (phospho-IκBα (Ser32) [1]; TNF 2 min): 5853
- P-IkB Raw data (phospho-IκBα (Ser32) [1]; TNF 2 min): 17220 and 16460 and 16920
- P-IkB Subtract reagent background (phospho-IκBα (Ser32) [1]; TNF 2 min): 6207 and 5447 and 5907
- P-IkB Average (phospho-IκBα (Ser32) [1]; TNF 4 min): 8003
- P-IkB Raw data (phospho-IκBα (Ser32) [1]; TNF 4 min): 18510 and 19530 and 19010
- P-IkB Subtract reagent background (phospho-IκBα (Ser32) [1]; TNF 4 min): 7497 and 8517
- P-IkB Average (phospho-IκBα (Ser32) [1]; TNF 6 min): 13540
- P-IkB Raw data (phospho-IκBα (Ser32) [1]; TNF 6 min): 23690 and 24890 and 25080
- P-IkB Subtract reagent background (phospho-IκBα (Ser32) [1]; TNF 6 min): 12677 and 13877
- P-IkB Average (phospho-IκBα (Ser32) [1]; TNF 8 min): 18690
- P-IkB Raw data (phospho-IκBα (Ser32) [1]; TNF 8 min): 28000 and 30000 and 31110
- P-IkB Subtract reagent background (phospho-IκBα (Ser32) [1]; TNF 8 min): 16987 and 18987
- P-IkB Average (phospho-IκBα (Ser32) [1]; TNF 10 min): 22970
- P-IkB Raw data (phospho-IκBα (Ser32) [1]; TNF 10 min): 33480 and 34070 and 34400
- P-IkB Subtract reagent background (phospho-IκBα (Ser32) [1]; TNF 10 min): 22467 and 23057
- P-IkB Average (phospho-IκBα (Ser32) [1]; TNF 12 min): 25163
- P-IkB Raw data (phospho-IκBα (Ser32) [1]; TNF 12 min): 35750 and 35400 and 37380
- P-IkB Subtract reagent background (phospho-IκBα (Ser32) [1]; TNF 12 min): 24737 and 24387
- P-IkB Average (phospho-IκBα (Ser32) [1]; TNF 15 min): 25267
- P-IkB Raw data (phospho-IκBα (Ser32) [1]; TNF 15 min): 35860 and 36040 and 36940
- P-IkB Subtract reagent background (phospho-IκBα (Ser32) [1]; TNF 15 min): 24847 and 25027 and 25927
- P-IkB Average (phospho-IκBα (Ser32) [1]; TNF 30 min): 18640
- P-IkB Raw data (phospho-IκBα (Ser32) [1]; TNF 30 min): 29280 and 29480 and 30200
- P-IkB Subtract reagent background (phospho-IκBα (Ser32) [1]; TNF 30 min): 18267 and 18467 and 19187
- P-IkB Average (phospho-IκBα (Ser32) [1]; TNF 45 min): 16850
- P-IkB Raw data (phospho-IκBα (Ser32) [1]; TNF 45 min): 28120 and 27980 and 27490
- P-IkB Subtract reagent background (phospho-IκBα (Ser32) [1]; TNF 45 min): 17107 and 16967 and 16477
- P-IkB Average (phospho-IκBα (Ser32) [1]; TNF 60 min): 19710
- P-IkB Raw data (phospho-IκBα (Ser32) [1]; TNF 60 min): 31240 and 30980 and 29950
- P-IkB Subtract reagent background (phospho-IκBα (Ser32) [1]; TNF 60 min): 20227 and 19967 and 18937
- P-IkB Average (phospho-IκBα (Ser32) [2]; TNF 2 min): 10421
- P-IkB Raw data (phospho-IκBα (Ser32) [2]; TNF 2 min): 19130 and 19610 and 19580
- P-IkB Subtract reagent background (phospho-IκBα (Ser32) [2]; TNF 2 min): 10591 and 10561 and 10111
- P-IkB Average (phospho-IκBα (Ser32) [2]; TNF 4 min): 13121
- P-IkB Raw data (phospho-IκBα (Ser32) [2]; TNF 4 min): 21660 and 22370 and 22390
- P-IkB Subtract reagent background (phospho-IκBα (Ser32) [2]; TNF 4 min): 13351 and 13371 and 12641
- P-IkB Average (phospho-IκBα (Ser32) [2]; TNF 6 min): 21828
- P-IkB Raw data (phospho-IκBα (Ser32) [2]; TNF 6 min): 29170 and 32480 and 30890
- P-IkB Subtract reagent background (phospho-IκBα (Ser32) [2]; TNF 6 min): 23461 and 21871 and 20151
- P-IkB Average (phospho-IκBα (Ser32) [2]; TNF 8 min): 28528
- P-IkB Raw data (phospho-IκBα (Ser32) [2]; TNF 8 min): 35450 and 39050 and 38140
- P-IkB Subtract reagent background (phospho-IκBα (Ser32) [2]; TNF 8 min): 30031 and 29121 and 26431
- P-IkB Average (phospho-IκBα (Ser32) [2]; TNF 10 min): 34158
- P-IkB Raw data (phospho-IκBα (Ser32) [2]; TNF 10 min): 41810 and 44090 and 43630
- P-IkB Subtract reagent background (phospho-IκBα (Ser32) [2]; TNF 10 min): 35071 and 34611 and 32791
- P-IkB Average (phospho-IκBα (Ser32) [2]; TNF 12 min): 36728
- P-IkB Raw data (phospho-IκBα (Ser32) [2]; TNF 12 min): 43840 and 47190 and 46210
- P-IkB Subtract reagent background (phospho-IκBα (Ser32) [2]; TNF 12 min): 38171 and 37191 and 34821
- P-IkB Average (phospho-IκBα (Ser32) [2]; TNF 15 min): 37461
- P-IkB Raw data (phospho-IκBα (Ser32) [2]; TNF 15 min): 43590 and 48210 and 47640
- P-IkB Subtract reagent background (phospho-IκBα (Ser32) [2]; TNF 15 min): 39191 and 38621 and 34571
- P-IkB Average (phospho-IκBα (Ser32) [2]; TNF 30 min): 32864
- P-IkB Raw data (phospho-IκBα (Ser32) [2]; TNF 30 min): 39720 and 43050 and 42880
- P-IkB Subtract reagent background (phospho-IκBα (Ser32) [2]; TNF 30 min): 34031 and 33861 and 30701
- P-IkB Average (phospho-IκBα (Ser32) [2]; TNF 45 min): 30164
- P-IkB Raw data (phospho-IκBα (Ser32) [2]; TNF 45 min): 36730 and 40420 and 40400
- P-IkB Subtract reagent background (phospho-IκBα (Ser32) [2]; TNF 45 min): 31401 and 31381 and 27711
- P-IkB Average (phospho-IκBα (Ser32) [2]; TNF 60 min): 35274
- P-IkB Raw data (phospho-IκBα (Ser32) [2]; TNF 60 min): 41100 and 46170 and 45610
- P-IkB Subtract reagent background (phospho-IκBα (Ser32) [2]; TNF 60 min): 37151 and 36591 and 32081
